Assay results from article PMC8689140 (Frontiers in Pharmacology, 2021).

Legend:
[1] = test system: dopamine receptors, serotonin receptors, adrenergic receptors, dopamine transporter, norepinephrine transporter, five serotonin transporter; test: Multi-target activity screen of SpectrumScreen Panel (Eurofins screen); conditions: serotonin transporters, and so on
[2] = Metabolite identification in dog plasma after oral dose; assay type: in vivo; conditions: dog plasma after oral administration
Experimental: Male beagle dogs were randomly divided into four groups. […] The dogs were fasted for 12 h before treatment and 4 h after treatment, but they were granted free access to water. Blood was collected from the vein before administration and 0.083 (only for injection groups), 0.25, 0.5, 1, 2, 3, 4, 6, 8, 12 and 24 h, and placed it in heparinized tubes, and centrifuged it at 8,000 rpm for 10 min at 4°C to separate the plasma, which we stored at −20 °C until analysis. The plasma samples were pretreated by protein precipitation with acetonitrile and quantitated by the validated LC-MS/MS (Shimadzu Exion-Triple Quad 4500) method.
Then, four volumes of acetonitrile (containing 0.1% formic acid) were added into the pooled plasma samples to precipitate the proteins. After vortex-mixing and centrifugation, the supernatants were dried under a nitrogen stream. Then, the residues were resuspended in 100 μl of acetonitrile/water (1:1, v/v) with 0.1% formic acid. After centrifugation, the supernatants were analyzed by UPLC–UV-HRMS for metabolite identification.
The analysis was performed on Acquity UPLC system coupled with a diode array detector (Waters Corporation, United States) and Q Exactive™ Orbitrap HRMS (Thermo Electron Corporation, United States). […] The mobile phase was composed water containing 0.1% formic acid (A) and acetonitrile containing 0.1% formic acid (B). The flow rate was 0.40 ml/min. The elution conditions were the following linear gradient for metabolite identify in HLMs: 0–1 min: 95% A, 1–2 min: 80% A, 2–5 min: 80% A, 5–8 min: 70% A, 8–12 min: 30% A, 12–15 min: 5% A, 15–16 min: 95% A, and 16–18 min: 95% A. The elution conditions were the following for metabolite identify in dog plasma: 0–1 min: 95% A, 1–30 min: 70% A, 30–32 min: 30% A, 32–33 min: 5% A, 33–35 min: 95% A, and 35–40 min: 95% A.
HRMS were operated at positive ion mode using a heating electrospray ionization source (HESI). The optimized operating parameters were set as follows: sheath gas (nitrogen) flow rate of 35 psi, aux gas (nitrogen) flow rate of 10 psi, HESI and capillary temperature of 350°C, and spray voltage of 3.5 kV. The metabolites were detected by full MS/dd-MS^2 analysis from m/z 100 to m/z 1,000. The resolution of the first-class scan and second-class scan was 70 000 and 17 500, respectively. The collision energy for collision induced dissociation (NCE) was set to 20, 40 and 60 eV. The loop count was set to five and the dynamic exclusion duration to 10 s. […] Thermo Compound Discover software was used to identify expected and unknown metabolites, and we finally proposed (+)-13e metabolic pathways based on the deduced metabolites and relevant drug biotransformation knowledge.

[3] = test system: locomotor activity of rats; test: Time-dependent effects on locomotor activity in rats; assay type: in vivo, rat; conditions: SD rats, 1.3 μmol/kg
Experimental: Rats were placed into the detection box after a single intragastric administration at different time points, and two rats from each group were used in each round of the experiment. The TopScan monitoring system was used to record and analyze the locomotor activity of the rats in different periods (0–1, 1–2, 3–4, 5–6, 6–7, and 7–8 h) after administration, and the RR was calculated as previously described.

rat brain VMAT2 = target: T1, rat brain VMAT2 (Rattus norvegicus, UniProt Q01827); test: VMAT2 binding assay (inhibition of [3H]HTBZ binding); conditions: ratio of Ki vs HTBZ
T1 construct: the whole rat brain (excluding the cerebellum) or striatal were homogenized; tissue Eurofins Panlabs (assay performed by); host or cells: rat brain (without cerebellum) or striatum, synaptic vesicle suspension
T1 sequence (Q01827 whole entry): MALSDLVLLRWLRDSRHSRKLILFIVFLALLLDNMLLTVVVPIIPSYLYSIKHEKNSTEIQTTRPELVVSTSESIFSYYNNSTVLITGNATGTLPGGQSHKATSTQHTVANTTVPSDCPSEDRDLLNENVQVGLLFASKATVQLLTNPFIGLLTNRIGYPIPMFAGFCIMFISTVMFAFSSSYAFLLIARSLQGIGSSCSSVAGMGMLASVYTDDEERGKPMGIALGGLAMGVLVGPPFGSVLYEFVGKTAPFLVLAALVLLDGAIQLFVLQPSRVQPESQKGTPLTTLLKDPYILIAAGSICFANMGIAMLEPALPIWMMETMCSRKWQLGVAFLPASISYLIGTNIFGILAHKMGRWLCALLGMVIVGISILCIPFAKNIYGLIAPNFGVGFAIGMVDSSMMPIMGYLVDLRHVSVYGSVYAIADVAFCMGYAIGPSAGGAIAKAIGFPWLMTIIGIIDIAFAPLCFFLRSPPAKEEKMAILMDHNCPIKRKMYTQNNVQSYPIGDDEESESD
Experimental: In brief, the whole rat brain (excluding the cerebellum) or striatal were homogenized in 20 ml of ice-cold sucrose solution (0.32 M). […] The samples were centrifuged at 20,000 g at 4°C for 20 min, then 20 ml of MgSO4 solution (1 mM) was added to the supernatant.
A 96-well plate was used for the assay in duplicate. […] Samples were preincubated for 30 min at room temperature. […] All reactions were terminated using vacuum filtration over a GF/B glass fiber filter pretreated with 0.5% BSA. […] Radioactivity retained on the filters was determined by liquid scintillation counter. […] IC50 values were determined by a nonlinear least-squares regression analysis and Ki was calculated.

SMILES: COc1cc2c(cc1OCC(F)(F)F)CCN1CC(CC(C)C)C(O)CC21 (single isomer, unassigned; (+)) [(+)-13e, (+)-9-(2,2,2-trifluoroethoxy)-α-dihydrotetrabenazine]
- effects in multi-target activity screen [1]: no effects
- O-detrifluoroethylation at the nine position [2]: did not occur
- duration of significant inhibition of locomotor activity [3]: at least 8 h
- affinity for VMAT2 stronger than that of HTBZ (rat brain VMAT2): ~3 fold
